According to PubChem BioAssay (NCI):
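A five-concentration, 48-hour dose response in 96-well plates underlies each endpoint, interpolated linearly between surrounding concentrations. TGI: concentration producing complete growth inhibition.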

Tests used:
Experiment in all cases: NCI-60 cell line screen, 48 h
LOX IMVI melanoma = test system: LOX IMVI melanoma
DU-145 prostate = test system: DU-145 prostate
U251 CNS = test system: U251 CNS
HOP-92 NSCLC = test system: HOP-92 NSCLC
MOLT-4 leukemia = test system: MOLT-4 leukemia
TK-10 renal = test system: TK-10 renal
RPMI-8226 leukemia = test system: RPMI-8226 leukemia
IGROV1 ovarian = test system: IGROV1 ovarian
SK-MEL-5 melanoma = test system: SK-MEL-5 melanoma
HCT-116 colon = test system: HCT-116 colon
ACHN renal = test system: ACHN renal
OVCAR-5 ovarian = test system: OVCAR-5 ovarian
NCI-H226 lung = test system: NCI-H226 lung
NCI/ADR-RES ovarian = test system: NCI/ADR-RES ovarian
SNB-19 CNS = test system: SNB-19 CNS
EKVX NSCLC = test system: EKVX NSCLC
SF-295 CNS = test system: SF-295 CNS
HCT-15 colon = test system: HCT-15 colon
HT29 colon = test system: HT29 colon
M14 melanoma = test system: M14 melanoma
HOP-62 NSCLC = test system: HOP-62 NSCLC
SF-539 CNS = test system: SF-539 CNS
HS 578T breast = test system: HS 578T breast
SW-620 colon = test system: SW-620 colon
MDA-MB-435 = test system: MDA-MB-435
NCI-H522 lung = test system: NCI-H522 lung
MDA-N = test system: MDA-N
A498 renal = test system: A498 renal
OVCAR-3 ovarian = test system: OVCAR-3 ovarian
K-562 leukemia = test system: K-562 leukemia
UO-31 renal = test system: UO-31 renal
OVCAR-8 ovarian = test system: OVCAR-8 ovarian
SK-MEL-2 melanoma = test system: SK-MEL-2 melanoma
SN12C renal = test system: SN12C renal
786-0 renal = test system: 786-0 renal
SK-MEL-28 melanoma = test system: SK-MEL-28 melanoma
BT-549 breast = test system: BT-549 breast
CCRF-CEM leukemia = test system: CCRF-CEM leukemia
HL-60(TB) leukemia = test system: HL-60(TB) leukemia
NCI-H460 lung = test system: NCI-H460 lung
HCC-2998 colon = test system: HCC-2998 colon
MCF7 breast = test system: MCF7 breast
UACC-257 melanoma = test system: UACC-257 melanoma
MALME-3M melanoma = test system: MALME-3M melanoma
CAKI-1 renal = test system: CAKI-1 renal
SK-OV-3 ovarian = test system: SK-OV-3 ovarian
SF-268 CNS = test system: SF-268 CNS
T-47D breast = test system: T-47D breast
MDA-MB-231 breast = test system: MDA-MB-231 breast
SNB-75 CNS = test system: SNB-75 CNS
UACC-62 melanoma = test system: UACC-62 melanoma
OVCAR-4 ovarian = test system: OVCAR-4 ovarian
NCI-H23 lung = test system: NCI-H23 lung
A549 NSCLC = test system: A549 NSCLC
COLO 205 colon = test system: COLO 205 colon
RXF 393 renal = test system: RXF 393 renal
SR leukemia = test system: SR leukemia
PC-3 prostate = test system: PC-3 prostate
KM12 colon = test system: KM12 colon

Measured: TGI

COc1ccc(-c2cc(=O)c3c(OC)c(OC)c(OC)c(OC)c3o2)cc1
83.9 µM: A498 renal
66.5 µM: NCI-H522 lung
84 µM: UACC-62 melanoma
59.5 µM: T-47D breast
not listed: PC-3 prostate | KM12 colon
> 100 µM: all other assays above

CCOc1ccc(-n2nnc3c(N)nc(N)nc32)cc1
not listed: HS 578T breast | UO-31 renal | HL-60(TB) leukemia | HCC-2998 colon | SF-268 CNS | RXF 393 renal
> 100 µM: all other assays above

CCC1(COC(NC(=O)c2ccccc2)(C(F)(F)F)C(F)(F)F)COC1
not listed: DU-145 prostate | HOP-92 NSCLC | NCI-H226 lung | SF-295 CNS | HOP-62 NSCLC | NCI-H522 lung | OVCAR-3 ovarian | NCI-H460 lung | MCF7 breast | MALME-3M melanoma | MDA-MB-231 breast | UACC-62 melanoma | OVCAR-4 ovarian | KM12 colon
> 100 µM: all other assays above

COc1ccc(C(=O)c2[nH]c(Nc3ccc(Cl)cc3)c(C(=S)Nc3ccccc3)c2N)cc1
93.6 µM: OVCAR-4 ovarian
87 µM: SK-MEL-28 melanoma
not listed: U251 CNS | RPMI-8226 leukemia | M14 melanoma | PC-3 prostate
> 100 µM: all other assays above
